This is an account of results in ChEMBL document CHEMBL1201862, “PubChem BioAssay data set” (2004).

Holding throughout (test): growth of human tumour cells (NCI), 48 h
The subject of assay [1] is MOLT-4.
Assay [2] has as its system HCT-15.
In assay [3] the test system is OVCAR-4.
For assay [4], the system named is SF-539.
In assay [5] the test system is CAKI-1.
In assay [6] the test system is NCI-H460.
Assay [7] has as its system IGROV-1.
Assay [8] has as its system SNB-19.
The subject of assay [9] is OVCAR-8.
The subject of assay [10] is 786-0.
For assay [11], the system named is NCI/ADR-RES.
For assay [12], the system named is CCRF-CEM.
Assay [13] concerns Hs-578T.
Assay [14] relates to UO-31.
For assay [15], the system named is HT-29.
In assay [16] the test system is TK-10.
The subject of assay [17] is DU-145.
In assay [18] the test system is EKVX.

Structures are written as SMILES.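 Where inhibition never reached the appropriate level, the endpoint shown equals the highest concentration tested. Otherwise, values were interpolated linearly from a five-concentration, 48-hour dose response in 96-well plates. The concentration for 50% growth inhibition is given as GI50.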 Activity calls are given as the source filed them. No stated cut-off is given here; in the data, active = GI50 up to about 1.1 µM and inactive = higher. Some results are limits rather than exact numbers.

Turning to `CC1(C)CC(=O)/C(=C/C2CCNC2=S)C(=O)N1` (configuration not stated), the GI50 in assay [1] is > 100 µM (inactive); in assay [2], above 100 µM; in [3] it was > 100 µM (inactive); in assay [4] it was > 100 µM (inactive); in assay [5] it was > 100 µM (inactive); in assay [6], > 100 µM (inactive). For the same compound, the GI50 in assay [7], in [8], in assay [9], in assay [10], in [11] and in assay [12] was > 100 µM (inactive) throughout. The GI50 in assay [13], in assay [14], in assay [15], in [16], in [17] and in assay [18] was > 100 µM (inactive) throughout.

Consider `C=CCOC(C)n1c(C)c(Br)c(=O)[nH]c1=O` (configuration not stated), for which the GI50 was > 100 µM (inactive) in assay [1]; above 100 µM in [2]; > 100 µM (inactive) in assay [4]; > 100 µM (inactive) in assay [5]; > 100 µM (inactive) in assay [6]; > 100 µM (inactive) in [7]. In addition, the GI50 in [8], in assay [9], in [10], in [12], in assay [14] and in assay [15] was > 100 µM (inactive) throughout. For the same compound, the GI50 in assay [16] and in assay [18] was > 100 µM (inactive) each time.

`N#CC1(N2CCCC2)CCC2(CC1)OCCO2`: the GI50 was > 100 µM (inactive) in [1]; above 100 µM in assay [2]; > 100 µM (inactive) in assay [3]; > 100 µM (inactive) in [4]; > 100 µM (inactive) in [5]; > 100 µM (inactive) in assay [6]. For the same compound, the GI50 in assay [7], in assay [8], in assay [9], in [10], in assay [12] and in [14] was > 100 µM (inactive) throughout. The GI50 in assay [15], in assay [16] and in assay [18] was > 100 µM (inactive) in each case.

Turning to `CCC1=CC(OCc2ccccc2)C(CCN(Cc2ccccc2)C(=O)OCc2ccccc2)C1` (configuration not stated), the GI50 was 10.2 µM (inactive) in assay [1]; 13.6 µM in assay [2]; 13.7 µM (inactive) in assay [3]; 20.6 µM (inactive) in assay [4]; 14.7 µM (inactive) in [5]; 15.3 µM (inactive) in [6]. The GI50 was 15.6 µM (inactive) in assay [7]; 14.8 µM (inactive) in assay [8]; 17.5 µM (inactive) in assay [9]; 19.3 µM (inactive) in [10]; 15.9 µM (inactive) in [11]; 11.5 µM (inactive) in assay [13]. Also, the GI50 was 14.6 µM (inactive) in assay [14]; 17.9 µM (inactive) in [15]; 16.5 µM (inactive) in [16]; 16.4 µM (inactive) in [17]; 16.1 µM (inactive) in assay [18].

Consider `CCc1ccc(Cc2ccc(CC)c(NC(=O)C(=O)Cc3nc4ccccc4nc3C)c2CC)c(CC)c1NC(=O)C(=O)Cc1nc2ccccc2nc1C`, for which the GI50 in assay [1] is 40.6 µM (inactive); in assay [2] it was above 100 µM; in assay [3] it was 72.3 µM (inactive); in [4] it was 36.8 µM (inactive); in [5] it was 25.4 µM (inactive); in [6], > 100 µM (inactive). Further, the GI50 in [7] was > 100 µM (inactive); in assay [8], 45.1 µM (inactive); in [9], > 100 µM (inactive); in [10], > 100 µM (inactive); in assay [12] it was 42.7 µM (inactive); in assay [14], 17.7 µM (inactive). Besides, the GI50 is > 100 µM (inactive) in assay [16] and 45.9 µM (inactive) in [18].

In the case of `N#C/C(=C\c1cc(O)ccc1O)C(N)=O`, the GI50 is 27 µM (inactive) in assay [1]; 44.2 µM in [2]; 54 µM (inactive) in assay [3]; 50.7 µM (inactive) in assay [4]; 46.2 µM (inactive) in [5]; 40.7 µM (inactive) in [6]. Further, the GI50 in assay [7] is 99.5 µM (inactive); in assay [8] it was 57.8 µM (inactive); in [9], 50.6 µM (inactive); in [10], 29.4 µM (inactive); in [12], 21.5 µM (inactive); in [14], 35.7 µM (inactive). Also, the GI50 is 38.8 µM (inactive) in [15], 50.8 µM (inactive) in assay [16] and 33.1 µM (inactive) in assay [18].

Consider `CCOC(=O)C1(C(=O)OCC)C[C@]23OCCC(=O)[C@H]2[C@H]2C(=O)OC(C)(C)O[C@]23C1`, for which the GI50 was > 100 µM (inactive) in assay [1]; above 100 µM in assay [2]; > 100 µM (inactive) in assay [3]; > 100 µM (inactive) in [4]; > 100 µM (inactive) in [5]; > 100 µM (inactive) in assay [6]. Also, the GI50 in assay [7], in assay [8], in assay [9], in assay [10], in assay [11] and in assay [12] was > 100 µM (inactive) in each case. Besides, the GI50 in assay [13], in assay [14], in [15], in [16], in assay [17] and in assay [18] was > 100 µM (inactive) each time.

As for `COc1ccc(Oc2cccc(C3C4C(=O)N(c5ccc(C)c(Cl)c5)C(=O)C4ON3C(C(N)=O)c3ccccc3)c2)cc1` (configuration not stated), the GI50 in assay [1] was 11.8 µM (inactive); in [2] it was 8.39 µM; in [3], 18.9 µM (inactive); in [4], 10.4 µM (inactive); in assay [5], 21 µM (inactive); in assay [6], 14.8 µM (inactive). The GI50 in [7] is 18.8 µM (inactive); in assay [8], 24 µM (inactive); in assay [9], 17.5 µM (inactive); in [10], 16.1 µM (inactive); in [12], 14 µM (inactive); in assay [13], 17.9 µM (inactive). Besides, the GI50 in assay [14] was 29.6 µM (inactive); in [15], 9.33 µM (inactive); in assay [16], 19.4 µM (inactive); in [17], 9.59 µM (inactive); in assay [18] it was 10.4 µM (inactive).

On to `CCOC(=O)C(Cc1ccccc1)NC(=O)c1nc[nH]c1/N=N/N(C)C` (configuration not stated), for which the GI50 in [1] is > 100 µM (inactive); in [2], above 100 µM; in assay [3], > 100 µM (inactive); in assay [4], > 100 µM (inactive); in assay [5], > 100 µM (inactive); in assay [6], > 100 µM (inactive). Besides, the GI50 in assay [7], in assay [8], in assay [9], in assay [10], in assay [12] and in [14] was > 100 µM (inactive) throughout. In addition, the GI50 in assay [15] is > 100 µM (inactive); in assay [16] it was > 10 µM (inactive); in assay [18], > 100 µM (inactive).

For the compound `Cc1c2ccncc2c(C)c2c1[nH]c1ccc(OC(C)(C)C)cc12`, the GI50 in [1] was 1.67 µM (inactive); in assay [3], 1.98 µM (inactive); in assay [4], 1.57 µM (inactive); in assay [5], 1.81 µM (inactive); in assay [6], 1.93 µM (inactive); in [7], 4.7 µM (inactive). For the same compound, the GI50 in assay [8] is 2.47 µM (inactive); in assay [9], 2.51 µM (inactive); in assay [10] it was 1.53 µM (inactive); in assay [12], 2.07 µM (inactive); in assay [14], 1.91 µM (inactive); in [15], 2.29 µM (inactive). For the same compound, the values for the GI50 in [16] and in assay [18] were 4.88 µM (inactive) and 11.1 µM (inactive), respectively.

With `CCOc1ccnc2c(OC)c(C)c3nc4ccccc4nc3c12`, the GI50 in assay [1] was 82.6 µM (inactive); in assay [2] it was 12.8 µM; in assay [3] it was > 100 µM (inactive); in assay [4], > 100 µM (inactive); in assay [5] it was > 100 µM (inactive); in [6], > 100 µM (inactive). Besides, the GI50 is 52.1 µM (inactive) in assay [7]; > 100 µM (inactive) in assay [8]; 57.4 µM (inactive) in assay [9]; > 100 µM (inactive) in [10]; 71.1 µM (inactive) in assay [11]; > 100 µM (inactive) in [12]. For the same compound, the GI50 in assay [13] was > 100 µM (inactive); in assay [14], > 100 µM (inactive); in [15], 72.8 µM (inactive); in [16], > 100 µM (inactive); in assay [17], 41 µM (inactive); in assay [18] it was > 100 µM (inactive).

`COC(=O)C(CSSC[C@H](N/C(C)=C/C(C)=O)C(=O)OC)N/C(C)=C/C(C)=O` (some centres not stated): the GI50 is 32.3 µM (inactive) in assay [1]; > 100 µM (inactive) in [3]; 53 µM (inactive) in [4]; 17.3 µM (inactive) in assay [5]; > 100 µM (inactive) in assay [6]; 36.7 µM (inactive) in [7]. Also, the GI50 is > 100 µM (inactive) in [8]; < 0.01 µM (active) in [9]; 32.2 µM (inactive) in [10]; > 100 µM (inactive) in assay [11]; 26.4 µM (inactive) in assay [12]; 21.6 µM (inactive) in assay [13]. Moreover, the GI50 in [14] was 47.5 µM (inactive); in assay [15], 38.7 µM (inactive); in [16] it was 2.66 µM (inactive); in [17], 25.7 µM (inactive); in assay [18] it was 16.4 µM (inactive).
